Values of other authors as cited in US8440723B2, “Metformin salts of salicylic acid and its congeners” (priority 2011, dated 2013).
Converted amounts (≈) assume the structure as drawn.

Legend:
[1] = The Merck Index, Eleventh Edition
[2] = system: patients with type 2 diabetes

SMILES | volume of water in which 1 g is soluble ([1]; 1 g of substance) [mL] | water solubility [1] [µg/mL] | effect on blood glucose, HbA1c, triglycerides, free fatty acid and C-reactive protein [2] | solubility in water (in words) [1]
O=C(O)c1ccccc1O [salicylic acid] | 460 | 2170 (≈ 15.7 mM) | – | –
O=C(Oc1ccccc1C(=O)O)c1ccccc1O [salsalate, 2-(2-hydroxybenzoyl)oxybenzoic acid] | – | – | lowers blood glucose, HbA1c levels, triglycerides, free fatty acid and C-reactive protein | practically insoluble in water
